Here are results for 34 compounds from US4895841A (priority 1987, dated 1990).

What is called IC50 is the concentration that inhibits the measured activity by half. The LD50 is the dose at which mortality reaches 50%.

Data set [1] concerns passive avoidance learning impairment induced by scopolamine. Briefly: Action on passive avoidance learning impairment induced by scopolamine. Type of data set: in vivo, Male Wistar rats. To be noted: scopolamine 0.5 mg/kg i.p. As to the method:
Action on passive avoidance learning impairment induced by scopolamine
See Z. Bokolanecky & Jarvik: Int. J. Neuropharmacol, 6, 217-222(1967).
Male Wistar rats were used as the test animal and a step-through light and dark box was used as an apparatus. A sample to detect was orally administered one hour before the training and the rats were treated with 0.5 mg/kg (i.p.) of scopolamine 30 min. before the training. In a training experiment, the animal was placed into a light room and, just after the animal had entered into a dark room, a guillotine door was closed, followed by delivery of an electric shock from the gid of the floor. After six hours, the animal was again placed into a light room for a retention experiment, and the time taken for the animal to enter the dark room was measured for evaluation of the effect of the sample.
The difference in the response time between the physiological saline administration group and the scopolamine administration group was taken as 100%, and the effect of the sample was expressed in terms of the percentage antagonism by the sample (Reverse %).
The number of animals per dose was 10 to 17.

Data set [2] has as its target T1, acetylcholinesterase (Mus musculus, UniProt P21836).
T1 construct: A mouse brain homogenate was used as an acetylcholinesterase source; from tissue; host or cells: mouse brain homogenate
As to the kind of experiment: biochemical. Type of data set: biochemical.

A further data set in a line: Toxicity tests on rats. The conditions noted are these: rat, in vivo, no serious toxicity.
Data set [3] concerns acetylcholinesterase. As to the kind of experiment: Ex vivo acetylcholinesterase inhibitory action in rat cerebral hemispheres after oral administration. The conditions noted are these: 1 h after administration, vs saline control.
Text: A sample to detect was orally administered to rats. After one hour of the administration, the cerebral hemispheres were dissected and homogenized, followed by the determination of the acetylcholinesterase activity. The group of rats treated with physiological saline was used as the control. Inhibition of AChE by samples ex vivo was expressed in terms of inhibition percent of the control value.
Setting [4] is: 0.25 mg/kg oral 1 h before training.
[5] abbreviates: 0.5 mg/kg oral 1 h before training.
Where [6] appears, read: read-out: AChE inhibitory activity IC50.
The mark [7] stands for this setting: 1.0 mg/kg oral 1 h before training.
The mark [8] stands for this setting: read-out: Inhibitory activity on AChE IC50.

Counter-ions that a name gives are not always drawn. Like-named read-outs stand apart in the source and are kept apart here. Some results are limits rather than exact numbers.

T1 sequence (P21836 32-614): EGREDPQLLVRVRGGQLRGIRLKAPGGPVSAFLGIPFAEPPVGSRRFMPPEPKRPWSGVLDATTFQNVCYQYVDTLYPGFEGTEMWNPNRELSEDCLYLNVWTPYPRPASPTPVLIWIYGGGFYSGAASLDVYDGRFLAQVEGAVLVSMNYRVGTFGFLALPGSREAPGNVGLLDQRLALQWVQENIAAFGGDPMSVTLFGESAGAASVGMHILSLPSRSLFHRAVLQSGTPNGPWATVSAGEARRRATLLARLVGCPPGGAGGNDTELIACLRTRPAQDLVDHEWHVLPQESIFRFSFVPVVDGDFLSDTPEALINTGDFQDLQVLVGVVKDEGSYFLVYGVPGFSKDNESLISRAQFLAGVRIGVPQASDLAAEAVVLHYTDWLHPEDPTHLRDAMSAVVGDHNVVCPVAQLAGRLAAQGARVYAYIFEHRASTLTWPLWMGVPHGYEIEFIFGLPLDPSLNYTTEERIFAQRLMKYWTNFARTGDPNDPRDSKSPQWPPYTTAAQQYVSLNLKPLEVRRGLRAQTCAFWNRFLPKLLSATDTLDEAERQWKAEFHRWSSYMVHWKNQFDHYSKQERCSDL

For the compound `COc1cc2c(cc1OC)C(=O)C(CC1CCN(Cc3ccccc3)CC1)C2` (stereo not shown) [Example 4, 1-Benzyl-4-[(5,6-dimethoxy-1-indanon)-2-yl]-methylpiperidine hydrochloride], the “Reverse % (percentage antagonism of scopolamine effect)” value in data set [1] (0.125 mg/kg oral 1 h before training) came out at 55%; in data set [1] (setting [4]), 36%.
`CC(C)OC(=O)c1nccnc1C(=O)NCCC1CCN(Cc2ccccc2)CC1` [Example 13] came in with an IC50 against acetylcholinesterase [2] of 26 nM. For the same compound, the results for the “Reverse % (percentage antagonism of scopolamine effect)” value in data set [1] (setting [4]) and in data set [1] (setting [5]) were 39% and 27%, respectively. For the same compound, the LD50 in “Toxicity tests on rats” is at least 100 mg/kg.
Turning to `O=C(NCCC1CCN(Cc2ccccc2)CC1)c1cnc2ccccc2n1` [Example 15, N-[4'-(1'-Benzylpiperidyl)ethyl]-2-quinoxalinecarboxylic amide], the IC50 at acetylcholinesterase [2] (setting [6]) stood at 94 nM. Also, the “AChE inhibitory action (%)” value in the data set on acetylcholinesterase [3] (10 mg/kg oral) was found to be 5%; in the data set on acetylcholinesterase [3] (30 mg/kg oral), 14%; with acetylcholinesterase [3] (100 mg/kg oral), 18%. Further, the “Reverse % (percentage antagonism of scopolamine effect)” value in data set [1] (setting [7]) was 51%; in data set [1] (2.0 mg/kg oral 1 h before training), 30%. In the data set “Toxicity tests on rats”, the median lethal dose (LD50) was at least 100 mg/kg.
Turning to `O=C(c1ccncc1)N(CCC1CCN(Cc2ccccc2)CC1)c1ccccc1` [Example 19, dihydrochloride], the concentration for half-maximal inhibition (IC50) on acetylcholinesterase [2] (setting [6]) came out at 64 nM. In addition, the “Reverse % (percentage antagonism of scopolamine effect)” value in data set [1] (setting [5]) came out at 37%; in data set [1] (setting [7]), 39%. This compound displayed an LD50 in “Toxicity tests on rats” of at least 100 mg/kg.
`CCN1CC(=O)N(CCC2CCN(Cc3ccccc3)CC2)c2ccccc2C1` [Example 69]: the “Reverse % (percentage antagonism of scopolamine effect)” value is 22% in data set [1] (setting [5]) and 38% in data set [1] (setting [7]). In addition, the LD50 in “Toxicity tests on rats” was at least 100 mg/kg.
`COc1cc2c(cc1O)C(=O)C(=CC1CCN(Cc3ccccc3)CC1)C2` [Example 214] had an IC50 on acetylcholinesterase [2] of 8.4 nM.
On the same count and under the same terms, then `COc1cc2c(cc1OCc1ccccc1)CC(=CC1CCN(Cc3ccccc3)CC1)C2=O` [Example 215], with 4.2 nM; and `CCOc1cc2c(cc1OCC)C(=O)C(=CC1CCN(Cc3ccccc3)CC1)C2` [Example 216], with 17 nM.
The same measure, in the same setting: then `O=C1C(=CC2CCN(Cc3ccccc3)CC2)Cc2cc3c(cc21)OCO3` [Example 217], with 140 nM.
For `O=C1C(=CC2CCN(Cc3ccccc3)CC2)CCc2ccccc21` [Example 218], the IC50 at acetylcholinesterase [2] was 20000 nM.
In turn, `O=C1C(=CC2CCN(Cc3ccccc3)CC2)CCCc2ccccc21` [Example 219] yielded an IC50 against acetylcholinesterase [2] of 19000 nM.
On the same count and under the same terms, then `CC(=CC1CCN(Cc2ccccc2)CC1)C(=O)c1ccccc1` [Example 220], with 11000 nM; and `COc1cc2c(cc1OC(C)C)CC(=CC1CCN(Cc3ccccc3)CC1)C2=O` [Example 221], with 33 nM.
Compound `COc1cc2c(cc1OC)C(=O)C(=CCCCC1CCN(Cc3ccccc3)CC1)C2` [Example 222] returned an IC50 against acetylcholinesterase [2] of 11 nM.
In turn, `COc1cc2c(cc1OC)C(=O)C(=CCCCCC1CCN(Cc3ccccc3)CC1)C2` [Example 223] returned an IC50 on acetylcholinesterase [2] of 5.4 nM.
Take `COc1cc2c(cc1OC)C(=O)C(=CC=CC1CCN(Cc3ccccc3)CC1)C2` [Example 224, 1-benzyl-4-((5,6-dimethoxy-1-oxoindanon)-2-yl)propenylpiperidine]: the 50% inhibitory concentration (IC50) against acetylcholinesterase [2] came to 3 nM.
Turning to `COc1cc2c(cc1OC)C(=O)C(CN1CCC(Cc3ccccc3)CC1)C2` (stereo not shown) [Example 225], the IC50 on acetylcholinesterase [2] (setting [8]) came out at 480 nM.
In turn, `COc1cc2c(cc1OC)C(=O)C(CC1CC[N+]([O-])(Cc3ccccc3)CC1)C2` (stereo not shown) [Example 226] gave an IC50 at acetylcholinesterase [2] of 4.9 nM.
As for `COc1cc2c(cc1OC)C(=O)C(CC1CCN(Cc3ccc(C)cc3)CC1)C2` (stereo not shown) [Example 229], the IC50 on acetylcholinesterase [2] (in vitro, mouse brain homogenate, Table 10, read-out: Inhibitory activity on AChE IC50) came to 40 nM.
Turning to `COc1cc2c(cc1OC)C(=O)C(CC1CCN(Cc3ccccc3[N+](=O)[O-])CC1)C2` (stereo not shown) [Example 230], the IC50 at acetylcholinesterase [2] (setting [8]) is 160 nM.
Turning to `COc1cc2c(cc1OC)C(=O)C(CC1CCN(Cc3cccc(O)c3)CC1)C2` (stereo not shown) [Example 233], the IC50 on acetylcholinesterase [2] was found to be 46 nM.
On to `COc1cc2c(cc1OC)C(=O)C(CC1CCN(Cc3ccc(O)cc3)CC1)C2` (stereo not shown) [Example 234], for which 1.8 nM corresponded to half-maximal inhibition at acetylcholinesterase [2] (IC50).
Same read-out and setting: the value for `COc1cccc(CN2CCC(CC3Cc4cc(OC)c(OC)cc4C3=O)CC2)c1` (stereo not shown) [Example 235] was 220 nM; that for `COc1ccc(CN2CCC(CC3Cc4cc(OC)c(OC)cc4C3=O)CC2)cc1` (stereo not shown) [Example 236] was 3600 nM.
`COc1cc2c(cc1OC)C(=O)C(CC1CCN(Cc3cccc(OCc4ccccc4)c3)CC1)C2` (stereo not shown) [Example 237] came in with an IC50 against acetylcholinesterase [2] of 2600 nM.
Still for that read-out and setting: the value for `COc1cc2c(cc1OC)C(=O)C(CC1CCN(Cc3cccnc3)CC1)C2` (stereo not shown) [Example 238] was 72 nM.
The compound `COc1cc2c(cc1OC)C(=O)C(CC1CCN(Cc3cccc4ccccc34)CC1)C2` (stereo not shown) [Example 241] had an IC50 against acetylcholinesterase [2] of 220 nM.
Regarding `COc1cc2c(cc1OC)C(=O)C(CC1CCN(Cc3ccc4ccccc4c3)CC1)C2` (stereo not shown) [Example 242], it took 2900 nM to reach half-maximal inhibition on acetylcholinesterase [2] (IC50).
Still for that read-out and setting: the value for `COc1ccc(CN2CCC(CC3Cc4cc(OC)c(OC)cc4C3=O)CC2)cc1OC` (stereo not shown) [Example 243] was 4000 nM; that for `COc1cc2c(cc1OC)C(=O)C(CC1CCN(Cc3cc(OC)c(OC)c(OC)c3)CC1)C2` (stereo not shown) [Example 244] was 4900 nM.
On the same count and under the same terms, then `COc1cc2c(cc1O)C(=O)C(CC1CCNCC1)C2` (stereo not shown) [Example 245], with 5000 nM; and `COc1cc2c(cc1OC)C(=NNc1ccc([N+](=O)[O-])cc1[N+](=O)[O-])C(CC1CCN(Cc3ccccc3)CC1)C2` (stereo not shown) [Example 246], with 4400 nM; and `COc1cc2c(cc1OC)C(=O)C(NC1CCN(Cc3ccccc3)CC1)C2` (stereo not shown) [Example 248], with 1400 nM.
The same measure, in the same setting: then `COc1cc2c(cc1OC)C(=O)C(C(C1CCN(Cc3ccccc3)CC1)C1Cc3cc(OC)c(OC)cc3C1=O)C2` (stereo not shown) [Example 249], with 620 nM.
